biological target: T1, human RORγ-LBD (Homo sapiens, UniProt P51449); assay: ROR gamma coactivator peptide recruitment Alphascreen assay (RORγ-LBD binding to GRIP1 coactivator peptide); assay type: biochemical; conditions: 5 nM human RORγ-LBD, 30 nM 7-β-hydroxycholesterol, 50 nM biotinylated GRIP1 coactivator peptide, overnight incubation at room temperature; read-out: result (pIC50, RORγ coactivator peptide recruitment Alphascreen assay) (converted)
T1 construct: made in house; host or cells: E. coli (BL-21)
T1 sequence (P51449 262-518): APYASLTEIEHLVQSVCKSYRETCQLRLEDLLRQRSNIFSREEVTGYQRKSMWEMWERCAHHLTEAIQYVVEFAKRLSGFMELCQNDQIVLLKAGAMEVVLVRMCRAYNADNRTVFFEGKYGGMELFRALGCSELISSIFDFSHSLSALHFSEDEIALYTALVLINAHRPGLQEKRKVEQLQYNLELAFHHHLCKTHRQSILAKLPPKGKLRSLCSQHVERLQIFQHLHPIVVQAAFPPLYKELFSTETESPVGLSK
Outline: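 Alphascreen proximity read-out after overnight room-temperature incubation, yielding pIC50 from 1-in-2 compound series (2.5% DMSO final). Mixture: 50 nM biotin-GRIP1 peptide, 30 nM 7-β-hydroxycholesterol agonist, 5 nM recombinant 6×His:Flag human RORγ-LBD (aa 262-518), 50 mM HEPES pH 7.4.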

| SMILES | IC50 |
| --- | --- |
| CC(C)(C)CN(CCc1c(Cl)c[nH]c(=O)c1Cl)C(=O)c1cnn([C@H]2CC[C@](C)(C(=O)O)CC2)c1C(F)(F)F [Example 885, trans-4-(4-((2-(3,5-dichloro-2-oxo-1,2-dihydro-4-pyridinyl)ethyl)(2,2-dimethylpropyl)carbamoyl)-5-(trifluoromethyl)-1H-pyrazol-1-yl)-1-methylcyclohexanecarboxylic acid] | 741 nM |
| C[C@@H]1C[C@@H](n2ncc(C(=O)N(CCc3c(Cl)c[nH]c(=O)c3Cl)CC(C)(C)C)c2C(F)(F)F)CC[C@@H]1C(=O)O [Example 886, (1S,2R,4S)-4-(4-((2-(3,5-dichloro-2-oxo-1,2-dihydro-4-pyridinyl)ethyl)(2,2-dimethylpropyl)carbamoyl)-5-(trifluoromethyl)-1H-pyrazol-1-yl)-2-methylcyclohexane carboxylic acid] | 468 nM |
| COc1ncc(Cl)c(CCN(CC(C)(C)C)C(=O)c2cnn([C@H]3CC[C@H](C(=O)O)[C@H](C)C3)c2C(F)(F)F)c1Cl [Example 887, (1S,2R,4S)-4-(4-((2-(3,5-dichloro-2-methoxy-4-pyridinyl)ethyl)(2,2-dimethylpropyl)carbamoyl)-5-(trifluoromethyl)-1H-pyrazol-1-yl)-2-methylcyclohexanecarboxylic acid] | 16.2 nM |
| COc1cc(Cl)c(C(=O)CN(CC2(F)CCCC2)C(=O)c2cnn([C@H]3CC[C@H](CC(=O)O)CC3)c2C(F)(F)F)c(Cl)c1 [Example 888, (trans-4-(4-((2-(2,6-dichloro-4-methoxyphenyl)-2-oxoethyl)((1-fluorocyclopentyl)methyl)carbamoyl)-5-(trifluoromethyl)-1H-pyrazol-1-yl)cyclohexyl)acetic acid] | 3.24 nM |
| COc1cc(Cl)c(C(=O)CN(Cc2ccc(F)cc2)C(=O)c2cnn([C@H]3CC[C@H](CC(=O)O)CC3)c2C(F)(F)F)c(Cl)c1 [Example 889, (trans-4-(4-((2-(2,6-dichloro-4-methoxyphenyl)-2-oxoethyl)(4-fluorobenzyl)carbamoyl)-5-(trifluoromethyl)-1H-pyrazol-1-yl)cyclohexyl)acetic acid] | 2.04 nM |
| Cc1cc(Cl)c(C(=O)CN(CC2(C)CCC2)C(=O)c2cnn([C@H]3CC[C@H](CC(=O)O)CC3)c2C(F)(F)F)c(Cl)c1 [Example 890, (trans-4-(4-((2-(2,6-dichloro-4-methylphenyl)-2-oxoethyl)((1-methylcyclobutyl)methyl)carbamoyl)-5-(trifluoromethyl)-1H-pyrazol-1-yl)cyclohexyl)acetic acid] | 0.708 nM |
| COc1cc(Cl)c(C(=O)CN(CC2CCC3(CCC3)CC2)C(=O)c2cnn([C@H]3CC[C@@](C)(C(=O)O)CC3)c2C(F)(F)F)c(Cl)c1 [Example 891, trans-4-(4-((2-(2,6-dichloro-4-methoxyphenyl)-2-oxoethyl)(spiro[3.5]non-7-ylmethyl)carbamoyl)-5-(trifluoromethyl)-1 H-pyrazol-1-yl)-1 - methylcyclohexanecarboxylic acid] | 15.5 nM |
| CC(C)(C)CN(CCc1c(Cl)cn2ncnc2c1Cl)C(=O)c1cnn([C@H]2CC[C@](C)(C(=O)O)CC2)c1C(F)(F)F [Example 892, trans-4-(4-((2-(6,8-dichloro[1,2,4]triazolo[1,5-a]pyridin-7-yl)ethyl)(2,2-dimethylpropyl)carbamoyl)-5-(trifluoromethyl)-1H-pyrazol-1-yl)-1-methylcyclohexanecarboxylic acid] | 302 nM |
| CC(C)(CN(CC(=O)c1c(Cl)cccc1Cl)C(=O)c1cnn([C@H]2CC[C@](C)(C(=O)O)CC2)c1C(F)(F)F)C(F)(F)F [Example 893, trans-4-(4-((2-(2,6-dichlorophenyl)-2-oxoethyl)(3,3,3-trifluoro-2,2-dimethylpropyl)carbamoyl)-5-(trifluoromethyl)-1H-pyrazol-1-yl)-1-methylcyclohexanecarboxylic acid] | 2.24 nM |

— US9365522B2, “Pyrazole amide derivative” (AMGEN INC., priority 2015, dated 2016)
